Here are results for two molecules from patent publication US11549123B2, “Plant EPSP synthases and methods of use” (PIONEER HI-BRED INTERNATIONAL, INC., priority 2015, dated 2023).

Numbering of substitutions follows the chain as printed.

Experiment [1] deals with EPSPS with TIPS mutations (T103I and P107S, as in GA21). To be noted: Funke et al. 2009; Yu et al. 2015; cited from earlier work.
The target in experiment [2] is Zea mays EPSPS variant 278V (Zea mays, UniProt O24566, T277V). The experiment in a line: EPSPS reaction rate with or without 10 uM glyphosate, 278V. Further: 50 µM PEP and S3P. The note with it: pH 7; read-out: Reaction rate with 10 μM glyph, % no glyph. It counts as biochemical.
The target in experiment [3] is Zea mays EPSPS variant 208V 313G (Zea mays, UniProt O24566, E312G/I207V). Put plainly: EPSPS reaction rate with or without 10 uM glyphosate, 208V 313G. Further: 50 µM PEP and S3P. It counts as biochemical. The note with it: pH 7; read-out: Reaction rate with 10 μM glyph, % no glyph.
For another experiment, the target named is Bacterial EPSPS (CP4) (Agrobacterium sp., UniProt Q9R4E4). The experiment in a line: Rapid two-rate method for (kcat/KM)*KI, bacterial EPSPS (CP4). The experiment is classed as biochemical. From the text: (§1) There are several practical considerations for accurately estimating (kcat/KM)*KI with the rapid method. […] 2) The inhibitor concentration must be adjusted so as to obtain a degree of inhibition that minimally amplifies the error in the term v0-vi in Equation 3. If inhibition is too little, v0-vi will be small, and the error in the multiplier vi×v0/(v0-vi) will be large. […] 3) Substrate concentration should be set at the approximate KM of the parental variant(s), subject to the sensitivity of the assay. High substrate concentration obscures sensitivity to the inhibitor and reduces stringency for capturing improvements in KM. Depending on the necessity for speed, there exists opportunity for customizing enzyme and inhibitor concentrations. […] The rapid method was repeated for those and obtained data that correlated better with data obtained by substrate saturation analysis. For screening purposes however, that correlation step is not necessary. Conditions can be set so that variants with a pre-determined minimal fitness level are accurately quantified.
(§2) In Table 15, parameters above the heavy line for the rapid method were obtained under standard conditions. For variants shown below the heavy line, the rapid analysis was repeated with enzyme or glyphosate concentrations adjusted as needed to generate sufficient signal within the limits for linear initial rates.

In experiment [4] the target is T1, Zea mays EPSPS variant Zm-T103A (Zea mays, UniProt O24566, T102A).
T1 construct: native maize plus T103A; E. coli BL21(DE3), Ni-NTA purified
T1 sequence (O24566 with tags, fused parts or gaps T102A): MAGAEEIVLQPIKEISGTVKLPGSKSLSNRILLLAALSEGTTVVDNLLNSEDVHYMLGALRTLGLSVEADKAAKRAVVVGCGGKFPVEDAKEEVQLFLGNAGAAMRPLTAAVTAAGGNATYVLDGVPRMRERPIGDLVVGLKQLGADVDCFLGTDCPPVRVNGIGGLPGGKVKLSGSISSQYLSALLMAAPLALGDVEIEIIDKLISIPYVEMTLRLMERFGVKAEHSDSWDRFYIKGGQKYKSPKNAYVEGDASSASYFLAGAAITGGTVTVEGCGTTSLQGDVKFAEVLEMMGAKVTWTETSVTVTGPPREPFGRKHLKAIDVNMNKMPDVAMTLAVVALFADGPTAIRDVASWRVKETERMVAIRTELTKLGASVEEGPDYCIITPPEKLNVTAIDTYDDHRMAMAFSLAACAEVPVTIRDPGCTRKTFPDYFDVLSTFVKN
The experiment in a line: Substrate saturation kinetic analysis with glyphosate, Zm-T103A. It counts as biochemical.

Experiment [5] deals with T2, Zea mays EPSPS variant Zm-T103I (Zea mays, UniProt O24566, T102I).
T2 construct: native maize plus T103I; E. coli BL21(DE3), Ni-NTA purified
T2 sequence (O24566 with tags, fused parts or gaps T102I): T1 sequence (O24566 with tags, fused parts or gaps T102A) with A103I
Put plainly: Rapid two-rate method for (kcat/KM)*KI, Zm-T103I. The experiment is classed as biochemical.
Excerpt: as §1, §2

Experiment [6] addresses T3, Zea mays EPSPS variant Zm-H6 (868-H6) with R61Y (H6-R61Y) (Zea mays, UniProt O24566, A1R/A3W/A415G/A71Q/D401G/E301S/E390G/G101A/I207L/K83R/L97C/R60Y/T278A/T360S/T440Q/V437R).
T3 construct: 868-H6 plus R61Y; E. coli BL21(DE3), Ni-NTA purified
T3 sequence (O24566 with tags, fused parts or gaps A1R/A3W/R60Y/A71Q/K83R/L97C/G101A/I207L/T278A/E301S/T360S/E390G/D401G/A415G/V437R/T440Q): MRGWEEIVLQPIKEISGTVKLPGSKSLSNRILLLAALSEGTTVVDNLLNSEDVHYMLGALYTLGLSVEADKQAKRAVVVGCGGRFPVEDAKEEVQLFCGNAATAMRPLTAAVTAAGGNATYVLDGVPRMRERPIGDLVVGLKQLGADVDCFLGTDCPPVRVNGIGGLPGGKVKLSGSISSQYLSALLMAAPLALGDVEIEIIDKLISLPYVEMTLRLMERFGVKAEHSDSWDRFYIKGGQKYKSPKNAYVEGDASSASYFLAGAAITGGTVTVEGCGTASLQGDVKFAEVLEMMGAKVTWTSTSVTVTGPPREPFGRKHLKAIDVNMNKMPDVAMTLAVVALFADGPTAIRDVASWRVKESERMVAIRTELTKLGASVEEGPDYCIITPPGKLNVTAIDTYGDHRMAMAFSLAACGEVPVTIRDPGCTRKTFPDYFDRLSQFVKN
Put plainly: Rapid two-rate method for (kcat/KM)*KI, H6-R61Y. The experiment is classed as biochemical. To be noted: [E] 0.07 uM, [Gly] 1000 uM.
Excerpt: as §1, §2

Chain of Bacterial EPSPS (CP4) (Q9R4E4 whole entry): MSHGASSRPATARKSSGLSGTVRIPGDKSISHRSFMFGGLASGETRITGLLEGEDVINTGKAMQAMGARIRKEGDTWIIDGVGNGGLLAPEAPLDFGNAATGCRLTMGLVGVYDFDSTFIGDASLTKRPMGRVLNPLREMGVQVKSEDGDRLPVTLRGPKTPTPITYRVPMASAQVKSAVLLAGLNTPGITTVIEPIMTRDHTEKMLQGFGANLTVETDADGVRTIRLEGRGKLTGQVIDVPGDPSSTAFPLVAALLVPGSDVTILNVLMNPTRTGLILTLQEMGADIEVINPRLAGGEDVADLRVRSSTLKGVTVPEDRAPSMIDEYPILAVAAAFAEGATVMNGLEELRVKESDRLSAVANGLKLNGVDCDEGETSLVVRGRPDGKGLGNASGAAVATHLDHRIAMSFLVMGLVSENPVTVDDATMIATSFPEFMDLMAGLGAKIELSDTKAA
Chain of Zea mays EPSPS variant 208V 313G (O24566 1-444 I207V/E312G): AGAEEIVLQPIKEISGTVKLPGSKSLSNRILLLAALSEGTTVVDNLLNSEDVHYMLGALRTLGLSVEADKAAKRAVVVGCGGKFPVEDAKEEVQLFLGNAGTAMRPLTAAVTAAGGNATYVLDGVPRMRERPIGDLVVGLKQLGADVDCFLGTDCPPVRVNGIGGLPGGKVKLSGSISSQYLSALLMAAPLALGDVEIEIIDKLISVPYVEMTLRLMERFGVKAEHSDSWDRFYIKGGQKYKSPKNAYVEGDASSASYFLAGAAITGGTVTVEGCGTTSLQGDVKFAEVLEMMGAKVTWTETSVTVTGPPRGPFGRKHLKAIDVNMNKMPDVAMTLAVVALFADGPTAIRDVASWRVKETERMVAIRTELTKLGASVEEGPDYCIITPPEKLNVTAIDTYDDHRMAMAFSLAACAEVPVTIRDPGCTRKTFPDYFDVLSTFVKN
Chain of Zea mays EPSPS variant 278V (O24566 entry or part of it T277V): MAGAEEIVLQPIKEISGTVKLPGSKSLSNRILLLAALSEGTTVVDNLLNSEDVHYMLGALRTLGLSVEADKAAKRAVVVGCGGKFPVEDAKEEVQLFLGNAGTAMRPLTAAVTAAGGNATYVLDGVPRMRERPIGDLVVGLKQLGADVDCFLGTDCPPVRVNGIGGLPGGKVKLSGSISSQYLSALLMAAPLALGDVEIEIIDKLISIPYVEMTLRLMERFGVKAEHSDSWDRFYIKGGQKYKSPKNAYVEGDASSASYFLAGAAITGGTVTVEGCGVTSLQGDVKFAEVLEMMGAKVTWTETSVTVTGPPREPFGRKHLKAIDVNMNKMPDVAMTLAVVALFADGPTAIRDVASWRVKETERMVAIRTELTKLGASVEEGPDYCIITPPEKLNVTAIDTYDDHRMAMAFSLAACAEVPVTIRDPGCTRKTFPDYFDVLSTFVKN

Consider `C=C(OP(=O)(O)O)C(=O)O` [PEP, phosphoenolpyruvate], for which, in experiment [1], the “kcat relative to native kcat” value is recorded as about 5%.
For the molecule `O=C(O)CNCP(=O)(O)O` [glyphosate, N-phosphonomethylglycine], the activity at 10 µM in experiment [2] came out at 3.25%; in experiment [3], 3.21%. In addition, the “(kcat/KM)*KI” value on Bacterial EPSPS (CP4) (rapid method repeated, CP4, [E] 0.007 uM, [Gly] 2000 uM) was 111800; on Bacterial EPSPS (CP4) (rapid method, Bacterial EPSPS, [E] 0.07 uM, [Gly] 1000 uM), 64262; in experiment [4] (substrate saturation, Zm-T103A), 321; in experiment [5] (rapid method repeated, [E] 0.103 uM, [Gly] 100 uM) it was 116; in experiment [5] (rapid method, [E] 0.07 uM, [Gly] 1000 uM), 133; in experiment [6], 1889. For the same molecule, affinity in experiment [4] was put at a Ki of 208 µM.
